Reference: article PMC9898036, “VIP152 is a selective CDK9 inhibitor with pre-clinical in vitro and in vivo efficacy in chronic lymphocytic leukemia” (Leukemia, 2022)

Tests used:
FAK = FAK (Homo sapiens, UniProt Q05397); assay: KINOMEscan: FAK; type: binding; conditions: 1000 nM, read-out: Percent Control
[1] = target: JAK2(JH1domain-catalytic) (Homo sapiens, UniProt O60674); assay: KINOMEscan: JAK2(JH1domain-catalytic); type: binding; conditions: 1000 nM, read-out: Percent Control
[2] = tested on: Calcium Channel L-Type, Benzothiazepine; assay: Eurofins Diversity Panel; type: binding; conditions: rat, Conc. 10 μM
MET = MET (Homo sapiens, UniProt P08581); assay: KINOMEscan: MET; type: binding; conditions: 1000 nM, read-out: Percent Control
CAMK2A = CAMK2A (Homo sapiens, UniProt Q9UQM7); assay: KINOMEscan: CAMK2A; type: binding; conditions: 1000 nM, read-out: Percent Control
MAP4K5 = MAP4K5 (Homo sapiens, UniProt Q9Y4K4); assay: KINOMEscan: MAP4K5; type: binding; conditions: 1000 nM, read-out: Percent Control
Histamine H3 = Histamine H3 (Homo sapiens, UniProt Q9Y5N1); assay: Eurofins Diversity Panel; type: binding; conditions: hum, Conc. 10 μM
CAMK1D = CAMK1D (Homo sapiens, UniProt Q8IU85); assay: KINOMEscan: CAMK1D; type: binding; conditions: 1000 nM, read-out: Percent Control
SIK = SIK (Homo sapiens, UniProt P57059); assay: KINOMEscan: SIK; type: binding; conditions: 100 nM, read-out: Percent Control
LKB1 = LKB1 (Homo sapiens, UniProt Q15831); assay: KINOMEscan: LKB1; type: binding; conditions: 1000 nM, read-out: Percent Control
CDKL2 = CDKL2 (Homo sapiens, UniProt Q92772); assay: KINOMEscan: CDKL2; type: binding; conditions: 1000 nM, read-out: Percent Control
CHEK1 = CHEK1 (Homo sapiens, UniProt O14757); assay: KINOMEscan: CHEK1; type: binding; conditions: 1000 nM, read-out: Percent Control
AXL = AXL (Homo sapiens, UniProt P30530); assay: KINOMEscan: AXL; type: binding; conditions: 1000 nM, read-out: Percent Control
Glutamate, NMDA, Glycine = Glutamate, NMDA, Glycine (Rattus norvegicus, UniProt P35439); assay: Eurofins Diversity Panel; type: binding; conditions: Conc. 10 μM
SYK = SYK (Homo sapiens, UniProt P43405); assay: KINOMEscan: SYK; type: binding; conditions: 100 nM, read-out: Percent Control
ROCK2 = ROCK2 (Homo sapiens, UniProt O75116); assay: KINOMEscan: ROCK2; type: binding; conditions: 100 nM, read-out: Percent Control
FER = FER (Homo sapiens, UniProt P16591); assay: KINOMEscan: FER; type: binding; conditions: 1000 nM, read-out: Percent Control
Estrogen Erα = Estrogen Erα (Homo sapiens, UniProt P03372); assay: Eurofins Diversity Panel; type: binding; conditions: hum, Conc. 10 μM
CHEK2 = CHEK2 (Homo sapiens, UniProt O96017); assay: KINOMEscan: CHEK2; type: binding; conditions: 1000 nM, read-out: Percent Control
PFCDPK1(P.falciparum) [3] = target: T1, PFCDPK1(P.falciparum) (Plasmodium falciparum, UniProt P62344); assay: DiscoverX KINOMEscan kinase profiling: PFCDPK1(P.falciparum); type: binding; conditions: PFCDPK1(P.falciparum) (Entrez CDPK1); 100 nM; read-out: Percent Control
DDR1 = DDR1 (Homo sapiens, UniProt Q08345); assay: KINOMEscan: DDR1; type: binding; conditions: 1000 nM, read-out: Percent Control
EPHA8 = EPHA8 (Homo sapiens, UniProt P29322); assay: KINOMEscan: EPHA8; type: binding; conditions: 1000 nM, read-out: Percent Control
GRK4 = GRK4 (Homo sapiens, UniProt P32298); assay: KINOMEscan: GRK4; type: binding; conditions: 1000 nM, read-out: Percent Control
INSR = INSR (Homo sapiens, UniProt P06213); assay: KINOMEscan: INSR; type: binding; conditions: 1000 nM, read-out: Percent Control
SRPK2 = SRPK2 (Homo sapiens, UniProt P78362); assay: KINOMEscan: SRPK2; type: binding; conditions: 100 nM, read-out: Percent Control
Endothelin ETA = Endothelin ETA (Homo sapiens, UniProt P25101); assay: Eurofins Diversity Panel; type: binding; conditions: hum, Conc. 10 μM
[4] = tested on: treatment-naïve primary CLL samples; assay: Annexin V/propidium iodide flow cytometry; type: cell-based; conditions: Homo sapiens; 10 treatment-naïve samples; read-out: IC50 (cytotoxic activity)
BMPR1B = BMPR1B (Homo sapiens, UniProt O00238); assay: KINOMEscan: BMPR1B; type: binding; conditions: 1000 nM, read-out: Percent Control
ZAK = ZAK (Homo sapiens, UniProt Q9NYL2); assay: KINOMEscan: ZAK; type: binding; conditions: 100 nM, read-out: Percent Control
EPHA2 = EPHA2 (Homo sapiens, UniProt P29317); assay: KINOMEscan: EPHA2; type: binding; conditions: 1000 nM, read-out: Percent Control
CAMK2B = CAMK2B (Homo sapiens, UniProt Q13554); assay: KINOMEscan: CAMK2B; type: binding; conditions: 1000 nM, read-out: Percent Control
MAP3K15 = MAP3K15 (Homo sapiens, UniProt Q6ZN16); assay: KINOMEscan: MAP3K15; type: binding; conditions: 1000 nM, read-out: Percent Control
DYRK2 = DYRK2 (Homo sapiens, UniProt Q92630); assay: KINOMEscan: DYRK2; type: binding; conditions: 1000 nM, read-out: Percent Control
PFCDPK1(P.falciparum) [5] = target: T1, PFCDPK1(P.falciparum); assay: DiscoverX KINOMEscan kinase profiling; type: binding; conditions: kinase PFCDPK1(P.falciparum) (Entrez CDPK1); compound concentration 1000 nM; read-out: Percent Control
Sigma σ1 = target: T2, Sigma σ1 (Homo sapiens, UniProt Q99720); assay: Eurofins Diversity Panel; type: binding; conditions: hum
T2 construct: purchased Eurofins

MAP4K2 = MAP4K2 (Homo sapiens, UniProt Q12851); assay: KINOMEscan: MAP4K2; type: binding; conditions: 1000 nM, read-out: Percent Control
TYRO3 = TYRO3 (Homo sapiens, UniProt Q06418); assay: KINOMEscan: TYRO3; type: binding; conditions: 100 nM, read-out: Percent Control
FGFR3 = FGFR3 (Homo sapiens, UniProt P22607); assay: KINOMEscan: FGFR3; type: binding; conditions: 1000 nM, read-out: Percent Control
FLT3(ITD,F691L) = assay: KINOMEscan: FLT3(ITD,F691L); type: binding, human; conditions: 1000 nM
[6] = target: JAK1(JH2domain-pseudokinase) (Homo sapiens, UniProt P23458); assay: KINOMEscan: JAK1(JH2domain-pseudokinase); type: binding; conditions: 1000 nM, read-out: Percent Control
Chain of JAK1(JH2domain-pseudokinase) (P23458 583-855 limits assumed): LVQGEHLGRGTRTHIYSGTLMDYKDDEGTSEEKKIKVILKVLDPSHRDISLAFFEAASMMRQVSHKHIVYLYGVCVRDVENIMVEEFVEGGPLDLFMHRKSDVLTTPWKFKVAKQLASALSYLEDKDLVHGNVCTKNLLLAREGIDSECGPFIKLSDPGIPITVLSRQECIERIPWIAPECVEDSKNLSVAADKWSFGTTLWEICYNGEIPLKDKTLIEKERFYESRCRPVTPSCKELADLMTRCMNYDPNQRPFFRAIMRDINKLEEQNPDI

T2 sequence (Q99720 whole entry): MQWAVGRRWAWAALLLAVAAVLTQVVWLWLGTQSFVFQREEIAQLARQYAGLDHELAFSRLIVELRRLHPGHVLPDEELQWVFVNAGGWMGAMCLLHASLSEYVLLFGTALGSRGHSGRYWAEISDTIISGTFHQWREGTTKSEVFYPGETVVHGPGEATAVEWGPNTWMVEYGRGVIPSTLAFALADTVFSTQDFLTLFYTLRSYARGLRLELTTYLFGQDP
T1 sequence (P62344 whole entry): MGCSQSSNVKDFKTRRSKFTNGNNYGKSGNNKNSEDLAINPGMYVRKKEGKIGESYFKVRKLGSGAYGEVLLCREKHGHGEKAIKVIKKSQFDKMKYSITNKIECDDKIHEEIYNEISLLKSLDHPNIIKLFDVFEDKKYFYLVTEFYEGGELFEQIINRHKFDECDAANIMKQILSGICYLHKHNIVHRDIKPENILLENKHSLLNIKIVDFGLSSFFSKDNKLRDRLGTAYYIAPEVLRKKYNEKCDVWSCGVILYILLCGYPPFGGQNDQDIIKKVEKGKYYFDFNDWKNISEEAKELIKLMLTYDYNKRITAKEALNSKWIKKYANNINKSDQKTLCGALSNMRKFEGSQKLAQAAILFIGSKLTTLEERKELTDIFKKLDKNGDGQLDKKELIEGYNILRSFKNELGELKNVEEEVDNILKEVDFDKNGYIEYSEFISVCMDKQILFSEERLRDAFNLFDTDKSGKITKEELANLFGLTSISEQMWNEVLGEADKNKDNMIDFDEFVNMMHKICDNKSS
Chain of EPHA2 (P29317 24-976): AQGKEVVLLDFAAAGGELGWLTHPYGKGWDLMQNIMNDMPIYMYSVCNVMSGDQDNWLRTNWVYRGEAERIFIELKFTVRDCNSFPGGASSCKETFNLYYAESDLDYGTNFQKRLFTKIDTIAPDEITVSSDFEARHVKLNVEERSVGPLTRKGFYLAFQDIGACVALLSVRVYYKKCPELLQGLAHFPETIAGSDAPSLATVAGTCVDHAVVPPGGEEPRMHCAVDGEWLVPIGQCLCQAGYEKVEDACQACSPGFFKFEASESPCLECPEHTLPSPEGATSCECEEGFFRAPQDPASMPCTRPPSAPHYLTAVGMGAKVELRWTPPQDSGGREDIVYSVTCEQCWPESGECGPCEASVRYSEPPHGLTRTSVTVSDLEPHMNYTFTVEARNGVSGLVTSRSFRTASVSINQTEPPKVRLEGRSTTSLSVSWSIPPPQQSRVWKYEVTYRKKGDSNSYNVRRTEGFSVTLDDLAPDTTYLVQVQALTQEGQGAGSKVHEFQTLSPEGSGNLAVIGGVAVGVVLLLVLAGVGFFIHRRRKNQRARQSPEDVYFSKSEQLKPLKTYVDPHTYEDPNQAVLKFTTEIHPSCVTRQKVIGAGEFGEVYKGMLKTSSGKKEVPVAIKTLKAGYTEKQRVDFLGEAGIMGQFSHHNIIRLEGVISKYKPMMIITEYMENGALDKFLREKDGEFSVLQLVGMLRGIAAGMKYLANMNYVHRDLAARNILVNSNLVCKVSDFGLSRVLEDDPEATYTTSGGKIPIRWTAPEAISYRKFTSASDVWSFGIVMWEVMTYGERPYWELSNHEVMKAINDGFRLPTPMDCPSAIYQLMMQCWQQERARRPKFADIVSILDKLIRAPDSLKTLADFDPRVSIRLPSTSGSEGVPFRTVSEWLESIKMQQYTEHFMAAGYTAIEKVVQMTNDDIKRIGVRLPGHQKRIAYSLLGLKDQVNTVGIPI
Chain of LKB1 (Q15831 whole entry): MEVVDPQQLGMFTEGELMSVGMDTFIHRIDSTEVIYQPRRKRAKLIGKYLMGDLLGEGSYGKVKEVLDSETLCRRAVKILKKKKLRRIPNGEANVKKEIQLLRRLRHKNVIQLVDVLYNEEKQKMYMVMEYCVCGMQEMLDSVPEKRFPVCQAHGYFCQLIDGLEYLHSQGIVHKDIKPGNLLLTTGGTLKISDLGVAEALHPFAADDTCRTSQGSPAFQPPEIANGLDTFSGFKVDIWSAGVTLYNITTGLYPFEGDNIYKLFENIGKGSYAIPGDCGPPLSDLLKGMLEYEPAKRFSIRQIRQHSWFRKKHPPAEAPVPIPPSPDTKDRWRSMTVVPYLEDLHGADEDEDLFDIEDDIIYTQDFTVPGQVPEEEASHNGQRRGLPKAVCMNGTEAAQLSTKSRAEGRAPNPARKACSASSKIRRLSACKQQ
Chain of DDR1 (Q08345 19-913): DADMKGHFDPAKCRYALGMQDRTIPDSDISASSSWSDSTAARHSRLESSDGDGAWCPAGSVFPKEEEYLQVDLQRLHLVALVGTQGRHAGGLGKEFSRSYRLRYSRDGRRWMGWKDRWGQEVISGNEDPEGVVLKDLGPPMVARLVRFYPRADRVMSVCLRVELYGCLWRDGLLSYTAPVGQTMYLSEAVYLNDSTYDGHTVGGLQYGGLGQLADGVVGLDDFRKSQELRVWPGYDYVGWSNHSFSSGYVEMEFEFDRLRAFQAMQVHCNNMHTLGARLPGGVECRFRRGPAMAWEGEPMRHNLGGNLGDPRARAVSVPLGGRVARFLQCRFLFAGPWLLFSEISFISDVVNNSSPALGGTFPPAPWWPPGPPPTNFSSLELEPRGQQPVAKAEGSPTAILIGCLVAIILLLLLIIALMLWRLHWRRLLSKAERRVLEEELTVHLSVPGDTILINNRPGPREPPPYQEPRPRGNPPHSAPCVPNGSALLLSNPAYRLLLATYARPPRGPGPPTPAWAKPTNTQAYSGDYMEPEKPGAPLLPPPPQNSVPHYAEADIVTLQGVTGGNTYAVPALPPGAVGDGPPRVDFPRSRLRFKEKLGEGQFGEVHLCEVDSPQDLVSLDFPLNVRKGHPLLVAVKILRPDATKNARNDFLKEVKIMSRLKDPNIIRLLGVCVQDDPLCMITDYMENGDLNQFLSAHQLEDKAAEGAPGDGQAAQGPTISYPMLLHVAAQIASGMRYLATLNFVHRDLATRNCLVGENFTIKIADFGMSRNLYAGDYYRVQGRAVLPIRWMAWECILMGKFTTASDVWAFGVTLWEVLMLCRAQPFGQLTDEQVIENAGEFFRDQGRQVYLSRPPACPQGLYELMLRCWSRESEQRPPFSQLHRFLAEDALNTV
Chain of Estrogen Erα (P03372 whole entry): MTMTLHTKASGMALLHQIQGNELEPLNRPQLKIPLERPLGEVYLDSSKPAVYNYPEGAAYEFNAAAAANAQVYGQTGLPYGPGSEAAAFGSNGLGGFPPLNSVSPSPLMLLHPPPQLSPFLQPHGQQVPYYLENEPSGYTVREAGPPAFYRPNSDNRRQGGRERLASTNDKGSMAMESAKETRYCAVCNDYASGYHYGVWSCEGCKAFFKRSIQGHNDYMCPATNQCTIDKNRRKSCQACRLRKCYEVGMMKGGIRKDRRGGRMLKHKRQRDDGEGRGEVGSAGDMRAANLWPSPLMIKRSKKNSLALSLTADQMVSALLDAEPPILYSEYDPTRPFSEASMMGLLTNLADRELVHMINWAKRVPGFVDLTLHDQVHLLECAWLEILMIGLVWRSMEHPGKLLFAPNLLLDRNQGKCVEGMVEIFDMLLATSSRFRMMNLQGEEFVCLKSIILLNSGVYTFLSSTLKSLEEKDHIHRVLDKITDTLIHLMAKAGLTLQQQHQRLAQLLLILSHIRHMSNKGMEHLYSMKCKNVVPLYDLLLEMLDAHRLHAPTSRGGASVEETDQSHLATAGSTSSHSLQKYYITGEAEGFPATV
Chain of DYRK2 (Q92630 whole entry): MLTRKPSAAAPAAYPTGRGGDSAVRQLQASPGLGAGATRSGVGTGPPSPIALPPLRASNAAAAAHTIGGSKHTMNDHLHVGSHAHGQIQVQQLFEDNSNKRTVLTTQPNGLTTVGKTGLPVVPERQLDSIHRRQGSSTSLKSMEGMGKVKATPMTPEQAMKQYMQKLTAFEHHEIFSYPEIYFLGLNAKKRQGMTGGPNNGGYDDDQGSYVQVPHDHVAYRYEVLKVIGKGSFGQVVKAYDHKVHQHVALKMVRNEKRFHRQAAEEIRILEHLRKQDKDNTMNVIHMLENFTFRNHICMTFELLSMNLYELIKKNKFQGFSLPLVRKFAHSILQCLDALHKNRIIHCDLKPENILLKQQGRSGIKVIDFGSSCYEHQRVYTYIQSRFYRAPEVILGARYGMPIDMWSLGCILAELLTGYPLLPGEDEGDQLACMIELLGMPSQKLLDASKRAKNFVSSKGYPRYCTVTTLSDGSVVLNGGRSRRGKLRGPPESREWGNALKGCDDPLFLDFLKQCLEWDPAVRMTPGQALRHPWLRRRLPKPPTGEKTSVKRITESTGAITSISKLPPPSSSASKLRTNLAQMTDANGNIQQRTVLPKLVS
Chain of Endothelin ETA (P25101 21-427): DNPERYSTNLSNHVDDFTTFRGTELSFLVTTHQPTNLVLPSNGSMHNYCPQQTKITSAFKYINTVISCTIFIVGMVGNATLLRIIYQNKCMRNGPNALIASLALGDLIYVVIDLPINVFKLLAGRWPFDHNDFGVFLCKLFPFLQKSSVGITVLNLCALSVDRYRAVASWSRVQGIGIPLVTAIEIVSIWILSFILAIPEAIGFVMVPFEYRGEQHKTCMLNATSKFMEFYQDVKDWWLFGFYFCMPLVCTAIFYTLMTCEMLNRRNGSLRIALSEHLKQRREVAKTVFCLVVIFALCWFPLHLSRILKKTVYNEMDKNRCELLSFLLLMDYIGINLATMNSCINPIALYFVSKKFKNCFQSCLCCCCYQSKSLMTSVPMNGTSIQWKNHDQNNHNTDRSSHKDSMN

SMILES: COc1cc(F)ccc1-c1cc(Nc2cc(CS(C)(=N)=O)ccn2)ncc1F (stereo not shown) [VIP152]
- remaining binding at 1 µM (FAK): 83%
- remaining binding at 1 µM [1]: 66%
- % Inh. [2]: 16%
- remaining binding at 1 µM (MET): 26%
- remaining binding at 1 µM (CAMK2A): 84%
- remaining binding at 1 µM (MAP4K5): 41%
- inhibition at 10 µM (Histamine H3): -4%
- remaining binding at 1 µM (CAMK1D): 99%
- remaining binding at 0.1 µM (SIK): 100%
- remaining binding at 1 µM (LKB1): 77%
- remaining binding at 1 µM (CDKL2): 18%
- remaining binding at 1 µM (CHEK1): 100%
- remaining binding at 1 µM (AXL): 50%
- inhibition at 10 µM (Glutamate, NMDA, Glycine): 12%
- remaining binding at 0.1 µM (SYK): 100%
- remaining binding at 0.1 µM (ROCK2): 100%
- remaining binding at 1 µM (FER): 97%
- inhibition at 10 µM (Estrogen Erα): 6%
- remaining binding at 1 µM (CHEK2): 77%
- remaining binding at 0.1 µM (PFCDPK1(P.falciparum) [3]): 97%
- remaining binding at 1 µM (DDR1): 29%
- remaining binding at 1 µM (EPHA8): 100%
- remaining binding at 1 µM (GRK4): 26%
- remaining binding at 1 µM (INSR): 97%
- remaining binding at 0.1 µM (SRPK2): 100%
- inhibition at 10 µM (Endothelin ETA): 13%
- IC50 [4]: < 100 nM
- remaining binding at 1 µM (BMPR1B): 46%
- remaining binding at 0.1 µM (ZAK): 100%
- remaining binding at 1 µM (EPHA2): 97%
- remaining binding at 1 µM (CAMK2B): 65%
- remaining binding at 1 µM (MAP3K15): 93%
- remaining binding at 1 µM (DYRK2): 62%
- remaining binding at 1 µM (PFCDPK1(P.falciparum) [5]): 86%
- IC50 (Sigma σ1): 1780 nM
- Ki (Sigma σ1): 750 nM
- nH (Sigma σ1): 0.75
- inhibition at 10 µM (Sigma σ1; Conc. 10 μM): 71%
- remaining binding at 1 µM (MAP4K2): 26%
- remaining binding at 0.1 µM (TYRO3): 100%
- remaining binding at 1 µM (FGFR3): 75%
- Percent Control (FLT3(ITD,F691L)): 78%
- remaining binding at 1 µM [6]: 96%
